Results reported in patent US11427567B2, “Imidazolyl pyrimidinylamine compounds as CDK2 inhibitors” (Incyte Corporation, priority 2019, dated 2022).

Target: CDK2/Cyclin E1 (Homo sapiens (Human), UniProt P24941)
Test: CDK2/Cyclin E1 HTRF enzyme activity assay (Example A)
Format: biochemical
Conditions: 1 mM ATP
Procedure: Assays were conducted in white 384-well polystyrene plates in a final reaction volume of 8 μL. […] HTRF signals were read after 1 hour at room temperature on a PHERAstar FS plate reader (BMG Labtech). Data was analyzed with IDBS XLFit and GraphPad Prism 5.0 software using a three or four parameter dose response curve to determine IC50 for each compound.

IC50 [nM] | SMILES
≤ 50 | CS(=O)(=O)N1CCC(Nc2ncc(C(F)(F)F)c(-c3cn(-c4ccc(CNCC#N)cc4Cl)cn3)n2)CC1 [Example 187, 2-((3-Chloro-4-(4-(2-((1-(methylsulfonyl)-piperidin-4-yl)amino)-5-(trifluoromethyl)-pyrimidin-4-yl)-1H-imidazol-1-yl)benzyl)-amino)acetonitrile]
≤ 50 | O=S(=O)(C1CC1)N1CCC(Nc2ncc(C(F)(F)F)c(-c3cn(-c4ccc(CN5CCC5)cc4Cl)cn3)n2)CC1 [Example 228, 4-(1-(4-(Azetidin-1-ylmethyl)-2-chlorophenyl)-1H-imidazol-4-yl)-N-(1-(cyclopropylsulfonyl)piperidin-4-yl)-5-(trifluoromethyl)pyrimidin-2-amine]
≤ 50 | CS(=O)(=O)N1CCC(Nc2ncc(C(F)(F)F)c(-c3cn(-c4cccc(CNC5CCOC5)c4Cl)cn3)n2)CC1 (stereo not drawn) [Example 367, 4-(1-(2-Chloro-3-(((tetrahydrofuran-3-yl)amino)methyl)phenyl)-1H-imidazol-4-yl)-N-(1-(methylsulfonyl)piperidin-4-yl)-5-(trifluoromethyl)pyrimi-din-2-amine]
≤ 50 | Cc1nc(-c2nc(NC3CCN(S(C)(=O)=O)CC3)ncc2C(F)(F)F)cn1-c1ccc(N2CCN(C)C(=O)C2)cc1F [Example 108, 4-(3-Fluoro-4-(2-methyl-4-(2-((1-(methylsulfonyl)-piperidin-4-yl)-amino)-5-(trifluoro-methyl)pyrimidin-4-yl)-1H-imidazol-1-yl)phenyl)-1-methylpiperazin-2-one]
≤ 50 | CS(=O)(=O)N1CCC(Nc2ncc(C(F)(F)F)c(-c3cn(-c4ccc(OCCN5CCCC5)cc4C#N)cn3)n2)CC1 [Example 437, 2-(4-(2-((1-(Methylsulfonyl)piperidin-4-yl)amino)-5-(trifluoromethyl)pyrimidin-4-yl)-1H-imidazol-1-yl)-5-(2-(pyrrolidin-1-yl)ethoxy)benzonitrile]
≤ 50 | CNCc1ccc(-n2cnc(-c3nc(NC4CCN(S(C)(=O)=O)CC4)ncc3C#N)c2)c(Cl)c1 [Example 226, 4-(1-(2-Chloro-4-((methylamino)-methyl)phenyl)-1H-imidazol-4-yl)-2-((1-(methylsulfonyl)-piperidin-4-yl)-amino)pyrimidine-5-carbonitrile]
≤ 50 | CS(=O)(=O)N1CCC(Nc2ncc(C(F)(F)F)c(-c3cn(-c4cccc(F)c4C#N)cn3)n2)CC1 [Example 56, 2-Fluoro-6-(4-(2-((1-(methylsulfonyl)piperidin-4-yl)amino)-5-(trifluoromethyl)pyrimidin-4-yl)-1H-imidazol-1-yl)benzonitrile]
≤ 50 | CS(=O)(=O)N1CCC(Nc2ncc(C(F)(F)F)c(-c3cn(-c4ccnc(N5CCOCC5)c4Cl)cn3)n2)CC1 [Example 320]
≤ 50 | CN(C)Cc1ccc(-n2cnc(-c3nc(NC4CCN(S(C)(=O)=O)CC4)ncc3C(F)(F)F)c2)c(Cl)c1 [Example 175, 4-(1-(2-Chloro-4-((dimethylamino)methyl)phenyl)-1H-imidazol-4-yl)-N-(1-(methylsulfonyl)piperidin-4-yl)-5-(trifluoromethyl)pyrimidin-2-amine]
≤ 50 | CN1CCN(c2ccc(-n3cnc(-c4nc(NC5CCN(S(C)(=O)=O)CC5)ncc4C(F)(F)F)c3)c(Cl)c2)CC1 [Example 148, 4-(1-(2-Chloro-4-(4-methylpiperazin-1-yl)phenyl)-1H-imidazol-4-yl)-N-(1-(methylsulfonyl)-piperidin-4-yl)-5-(trifluoromethyl)-pyrimidin-2-amine]
≤ 50 | CC(C)(O)C1CN(Cc2ccc(-n3cnc(-c4nc(NC5CCN(S(C)(=O)=O)CC5)ncc4C(F)(F)F)c3)c(Cl)c2)C1 [Example 203, 2-(1-(3-Chloro-4-(4-(2-((1-(methyl-sulfonyl)piperidin-4-yl)amino)-5-(trifluoromethyl)-pyrimidin-4-yl)-1H-imidazol-1-yl)-benzyl)azetidin-3-yl)propan-2-ol]
≤ 50 | CS(=O)(=O)N1CCC(Nc2ncc(C(F)(F)F)c(-c3cn(-c4ccc(CN5CCC5)cc4C(F)(F)F)cn3)n2)CC1 [Example 251, 4-(1-(4-(Azetidin-1-ylmethyl)-2-(trifluoromethyl)phenyl)-1H-imidazol-4-yl)-N-(1-(methylsulfonyl)piperidin-4-yl)-5-(trifluoromethyl)pyrimidin-2-amine]
≤ 50 | C[C@]1(O)CCN(Cc2ccc(-n3cnc(-c4nc(N[C@H]5CCN(S(C)(=O)=O)C[C@H]5F)ncc4C(F)(F)F)c3)c(Cl)c2)C1 [Example 412, (S)-1-(3-Chloro-4-(4-(2-(((3R,4S)-3-fluoro-1-(methylsulfonyl)piperidin-4-yl)amino)-5-(trifluoromethyl)pyrimidin-4-yl)-1H-imidazol-1-yl)benzyl)-3-methylpyrrolidin-3-ol]
≤ 50 | CS(=O)(=O)N1CC[C@H](Nc2ncc(C(F)(F)F)c(-c3cn(-c4cccnc4C#N)cn3)n2)[C@H](F)C1 [Example 47, 3-(4-(2-(((3R,4S)-3-Fluoro-1-(methylsulfonyl)piperidin-4-yl)amino)-5-(trifluoromethyl)pyrimidin-4-yl)-1H-imidazol-1-yl)picolinonitrile]
≤ 50 | CS(=O)(=O)N1CCC(Nc2ncc(C(F)(F)F)c(-c3cn(-c4cccc(CN5CCC5)c4Cl)cn3)n2)CC1 [Example 366, 4-(1-(3-(Azetidin-1-ylmethyl)-2-chlorophenyl)-1H-imidazol-4-yl)-N-(1-(methylsulfonyl)piperidin-4-yl)-5-(trifluoromethyl)pyrimi-din-2-amine]
≤ 50 | CCN(C)CCCc1ccc(-n2cc(-c3nc(NC4CCN(S(C)(=O)=O)CC4)ncc3C(F)(F)F)nc2C)c(F)c1 [Example 460, 4-(1-(4-(3-(Ethyl(methyl)amino)propyl)-2-fluorophenyl)-2-methyl-1H-imidazol-4-yl)-N-(1-(methylsulfonyl)piperidin-4-yl)-5-(trifluoromethyl)pyrimidin-2-amine]
≤ 50 | CCN(CC)Cc1ccc(-n2cnc(-c3nc(NC4CCN(S(C)(=O)=O)CC4)ncc3C(F)(F)F)c2)c(C(F)(F)F)c1 [Example 258, 4-(1-(4-((Diethylamino)methyl)-2-(trifluoromethyl)phenyl)-1H-imidazol-4-yl)-N-(1-(methylsulfonyl)piperidin-4-yl)-5-(trifluoromethyl)pyrimidin-2-amine]
≤ 50 | Cc1c(C#N)cccc1-n1cc(-c2nc(N[C@H]3CCN(S(C)(=O)=O)C[C@H]3F)ncc2C(F)(F)F)nc1C [Example 306, 3-(4-(2-(((3R,4S)-3-Fluoro-1-(methylsulfonyl)piperidin-4-yl)amino)-5-(trifluoromethyl)pyrimidin-4-yl)-2-methyl-1H-imidazol-1-yl)-2-methylbenzonitrile]
≤ 50 | CC(CN(C)C)Oc1ccc(-n2cnc(-c3nc(NC4CCN(S(C)(=O)=O)CC4)ncc3C(F)(F)F)c2)c(C(F)(F)F)n1 (stereo not drawn) [Example 73, 4-(1-(6-((1-(Dimethylamino)propan-2-yl)oxy)-2-(trifluoromethyl)pyridin-3-yl)-1H-imidazol-4-yl)-N-(1-(methylsulfonyl)piperidin-4-yl)-5-(trifluoromethyl)pyrimidin-2-amine]
≤ 50 | Cc1nc(-c2nc(NC3CCN(S(C)(=O)=O)CC3)ncc2C(F)(F)F)cn1-c1ccc(N2CC[C@H](N(C)C)C2)cc1F [Example 110, (S)-4-(1-(4-(3-(Dimethylamino)-pyrrolidin-1-yl)-2-fluorophenyl)-2-methyl-1H-imidazol-4-yl)-N-(1-(methyl-sulfonyl)piperidin-4-yl)-5-(trifluoro-methyl)pyrimidin-2-amine]
≤ 50 | CC(C)NCc1cc(F)c(-n2cnc(-c3nc(NC4CCN(S(C)(=O)=O)CC4)ncc3C(F)(F)F)c2)c(F)c1 [Example 348]
≤ 50 | Cc1nc(-c2nc(N[C@H]3CCN(S(C)(=O)=O)C[C@H]3F)ncc2C(F)(F)F)cn1-c1ccc(N2CCC(N(C)C)CC2)cc1F [Example 118, 4-(1-(4-(4-(Dimethylamino)piperidin-1-yl)-2-fluorophenyl)-2-methyl-1H-imidazol-4-yl)-N-((3R,4S)-3-fluoro-1-(methylsulfonyl)piperidin-4-yl)-5-(trifluoromethyl)pyrimidin-2-amine]
≤ 50 | [2H]C([2H])([2H])NC(=O)c1ccc(-n2cnc(-c3nc(NC4CCN(S(C)(=O)=O)CC4)ncc3C(F)(F)F)c2)c(C)n1 [Example 131, 6-Methyl-N-(methyl-d)-5-(4-(2-((1-(methylsulfonyl)piperidin-4-yl)amino)-5-(trifluoromethyl)pyrimidin-4-yl)-1H-imidazol-1-yl)picolinamide]
≤ 50 | CS(=O)(=O)N1CCC(Nc2ncc(C(F)(F)F)c(-c3cn(-c4c(F)cc(CNC5CC5)cc4F)cn3)n2)CC1 [Example 347, 4-(1-(4-((Cyclopropylamino)methyl)-2,6-difluorophenyl)-1H-imidazol-4-yl)-N-(1-(methylsulfonyl)piperidin-4-yl)-5-(trifluoromethyl)pyrimidin-2-amine]
≤ 50 | COc1ccc(-n2cnc(-c3nc(NC4CCN(S(C)(=O)=O)CC4)ncc3C(F)(F)F)c2)c(C(F)F)n1 [Example 75, 4-(1-(2-(Difluoromethyl)-6-methoxypyridin-3-yl)-1H-imidazol-4-yl)-N-(1-(methylsulfonyl)piperidin-4-yl)-5-(trifluoromethyl)pyrimidin-2-amine]
≤ 50 | CC(=O)Nc1nccc(-n2cnc(-c3nc(NC4CCN(S(=O)(=O)c5cn(C)cn5)CC4)ncc3C(F)(F)F)c2)c1C [Example 8, N-(3-Methyl-4-(4-(2-((1-((1-methyl-1H-imidazol-4-yl)sulfonyl)piperidin-4-yl)amino)-5-(trifluoromethyl)pyrimidin-4-yl)-1H-imidazol-1-yl)pyridin-2-yl)acetamide]
≤ 50 | CN(C)C(=O)c1ccc(-n2cnc(-c3nc(NC4CCN(S(C)(=O)=O)CC4)ncc3C(F)(F)F)c2)c(Cl)c1 [Example 135, 3-Chloro-N,N-dimethyl-4-(4-(2-((1-(methylsulfonyl)piperidin-4-yl)amino)-5-(trifluoromethyl)pyrimidin-4-yl)-1H-imidazol-1-yl)benzamide]
